Results on 5 molecules are retold here after patent publication US20140316217A1, “SYSTEM AND METHOD FOR MONITORING ANESTHESIA AND SEDATION USING MEASURES OF BRAIN COHERENCE AND SYNCHRONY” (priority 2013, published 2014).

“And” between values parts separate entries of the source, which are not always exact repeats. Equal values may be shown once.

Assay [1] concerns volunteers. The note with it: for frequency range of increased power in the spectrogram compared to baseline: sedation, visually evident. The source says:
(§1) The power spectral density, also referred to as the power spectrum or spectrum, quantifies the frequency distribution of energy or power within a signal. The spectrogram is a time-varying version of the spectrum. […] In these spectrograms, frequencies are arranged along the y-axis, and time along the x-axis, and power is indicated by color on a decibel (dB) scale. […] Spectra and spectrograms were computed using the multitaper method, implemented in the Chronux toolbox (http://chronux.orq). The multitaper method was chosen specifically because it allows the spectral resolution to be set precisely, which is desirable in observing many anesthesia-related phenomena. Moreover, for a particular choice of spectral resolution, the multitaper method offers lower bias and lower variance than traditional nonparametric spectral estimation methods.
(§2) Group-level spectrograms were computed by taking the median across volunteers. Spectra were also calculated for selected EEG epochs. The resulting spectra were then averaged for all epochs, and 95% confidence intervals were computed via taper-based jackknife techniques. The spectral analysis parameters included window length T=4 s with 0 s overlap, time-bandwidth product TW=3, number of tapers K=5, and spectral resolution 2 W of 1.5 Hz. Peak power, and its frequency, was estimated for the dex-spindle, travelling peak, and frontal alpha oscillations for each individual subject. Averages across subjects were performed to obtain the group-level peak power and frequency for these oscillations.
(§3) To compare spectral and coherence estimates between groups, jackknife-based methods were used, namely the two-group test for spectra (TGTS), and the two-group test for coherence (TGTC), as implemented by the Chronux toolbox (http://www.chronukorg). This method accounts for the underlying spectral resolution of the spectral and coherence estimates, and considers differences to be significant if they are present for contiguous frequencies over a range greater than the spectral resolution 2 W. Specifically, for frequencies f>2 W, the null hypothesis was rejected only if the test statistic exceeded the significance threshold over a contiguous frequency range ≧2 W. For frequencies 0≦f≦2 W, to account for the properties of multitaper spectral estimates at frequencies close to zero, the null hypothesis was rejected only if the test statistic exceeded the significance threshold over a contiguous frequency range from 0 to max(f,W)≦2 W. A significance threshold of p<0.05 was selected for within group comparisons and p<0.001 for between group comparisons, applying a Bonferonni correction for multiple comparisons where appropriate.
Volunteers were instructed to close their eyes throughout the study to avoid eye-blink artifacts in the EEG. Volunteers were presented with auditory stimuli during the study and asked to respond by button presses to assess the level of conscious behavior. The stimuli consisted of the volunteer's name presented every two minutes. Button-press stimuli were recorded using a custom-built computer mouse with straps fitted to hold the first and second fingers in place over the mouse buttons. The mouse was also lightly strapped to the subject's hand using tape and an arterial line board to ensure that responses could be recorded accurately.
We applied an anti-aliasing filter and down-sampled the EEG data to 250 Hz before analysis. EEG signals were re-montaged to a nearest-neighbor Laplacian reference, using distances along the scalp surface to weigh neighboring electrode contributions. First, 2-minute EEG segments were selected from all subjects during the awake, eyes closed baseline. Eye closure facilitates distinguishing between normal awake, eyes-closed occipital alpha oscillations and the frontal alpha oscillations associated with anesthesia induced altered arousal. EEG data segments were selected based on the behavioral response.

The subject of assay [2] is volunteers. To be noted: for frequency range of increase in coherence on the coherogram compared to baseline: sedation.
Assay [3] has as its system patients. As to the kind of experiment: Frontal EEG spectral analysis during sevoflurane and propofol general anesthesia (patients, Sedline monitor). It counts as in vivo, human. To be noted: mean±std.
Description: as §1, §2, §3

The subject of assay [4] is patients. As to the kind of experiment: Frontal EEG coherence analysis during sevoflurane and propofol general anesthesia (patients, Sedline monitor). It counts as in vivo, human.
Assay [5] concerns dopaminergic arousal pathway. As to the kind of experiment: Methylphenidate-induced emergence from isoflurane general anesthesia; plethysmography and blood gas experiments. The format is in vivo. The source says:
MPH can be used to restore consciousness, induce electroencephalogram changes consistent with arousal, and increase respiratory drive. The behavioral and respiratory effects induced by methylphenidate can be inhibited by droperidol, supporting the evidence that methylphenidate induces arousal by activating a dopaminergic arousal pathway.

Assay [6] relates to patient. To be noted: anesthetized with ketamine alone or in combination with other anesthetic agents; cited from earlier work.
Where [7] appears, read: dexmedetomidine sedation, mean±std.
[8] abbreviates: propofol-induced unconsciousness, dexmedetomidine sedation.
[9] abbreviates: dexmedetomidine sedation, propofol-induced unconsciousness.
[10] abbreviates: propofol-induced unconsciousness.
The mark [11] stands for this setting: general anesthesia, P<0.001 TGTC.

As to `Cc1cccc([C@H](C)c2cnc[nH]2)c1C` [dexmedetomidine], the “frequency range in which EEG power was lower than baseline” value in assay [1] (dexmedetomidine sedation, P<0.05 TGTS) is given as 17.4-40 Hz. In assay [1] (setting [7]), the “dex-spindle oscillation peak frequency (EEG power)” value was 13.1 Hz and ~13 Hz; the “dex-spindle oscillation peak power” value was −10.2 dB. The “frequency at which maximum power and coherence of spindles occur” value in assay [1] (dexmedetomidine sedation, summary) is given as 13-14 Hz. In assay [1] (setting [8]), this molecule came in with a slow oscillations power of 1.8 dB. In addition, the “frequency range of increased power in the spectrogram compared to baseline” value in assay [1] was 2-15 Hz. Besides, in assay [2] (dexmedetomidine sedation), the “coherence peak frequency (dex-spindle)” value amounted to 13.3 Hz and the “peak coherence (dex-spindle)” value is recorded as 0.78±0.08. The “frequency range of decrease in coherence on the coherogram compared to baseline” value in assay [2] (setting [9]) is given as 0.1-1 Hz. In addition, the “frequency range of increase in coherence on the coherogram compared to baseline” value in assay [2] was 1-15 Hz.

Turning to `CC(C)c1cccc(C(C)C)c1O` [propofol], in assay [1] (setting [10]), the “frontal alpha oscillations power” value amounted to 2.5 dB and the “size of slow oscillations compared with dexmedetomidine sedation” value is given as “almost an order of magnitude larger”. In assay [1] (setting [8]), this molecule returned a slow oscillations power of 19.2 dB. In addition, the “frequency range of increased power in the spectrogram compared to baseline” value in assay [1] is on record as 1-25 Hz. Also, in assay [3], the “alpha oscillation peak frequency (EEG power)” value was 10.3 Hz and the “alpha oscillation peak power” value amounted to 2.1 dB. In addition, the “alpha oscillation coherence peak frequency” value in assay [4] (general anesthesia) came out at 10.2 Hz. Also, in assay [4] (setting [11]), the “frequency range in which propofol exhibited increased EEG coherence versus sevoflurane” value is recorded as 11.7-19.5 Hz. Also, the “alpha oscillation peak coherence” value in assay [4] (propofol general anesthesia) was 0.71 dB. Besides, in assay [2] (P<0.0005 TGTC), the “frequency range in which coherence was higher during propofol-induced unconsciousness than dexmedetomidine sedation” value was 9.5-11.7 Hz; the “frequency ranges in which coherence was larger during propofol-induced sedation than dexmedetomidine sedation” value was 19.8-26.4 Hz and 26.9-29.3 Hz. The “frequency range of decrease in coherence on the coherogram compared to baseline” value in assay [2] (setting [9]) was 0.1-1 Hz. Further, in assay [2] (propofol peak max (unconsciousness), P<0.025 TGTC), the “frequency range of decreased slow oscillation coherence versus baseline” value is on record as 0.1-1.7 Hz. Further, in assay [2] (propofol sedation), the “coherence peak frequency (traveling-peak)” value worked out at 16.1 Hz and the “peak coherence (traveling-peak)” value was 0.69±0.05. Besides, in assay [2] (setting [10]), the “alpha oscillation peak coherence” value was determined as 0.85±0.05 and the “centre of the narrow band of alpha oscillation coherence” value is reported as ~10 Hz. Also, the “frequency range of significant increase in coherence versus baseline” value in assay [2] (propofol-induced unconsciousness, P<0.025 TGTC) was 4-15.9 Hz. Also, in assay [2], the “frequency range of increase in coherence on the coherogram compared to baseline” value is 1-25 Hz.

Take `FCOC(C(F)(F)F)C(F)(F)F` [sevoflurane]: in assay [3], the “alpha oscillation peak frequency (EEG power)” value worked out at 9.2 Hz and the “alpha oscillation peak power” value turned out to be 4.3 dB. Besides, in assay [4] (general anesthesia), the “alpha oscillation coherence peak frequency” value came to 9.8 Hz, the “theta coherence peak frequency” value came out at 4.9 Hz and the theta peak coherence was found to be 0.58±0.1. For the same molecule, in assay [4] (setting [11]), the “frequency range in which sevoflurane exhibited increased EEG coherence versus propofol” value is recorded as 3.41-10.7 Hz. Besides, the “frequency at which maximum power and coherence of coherent alpha oscillations occur” value in assay [4] (general anesthesia, summary) is reported as 10-12 Hz. In addition, the “frequency of coherent theta oscillations” value in assay [4] (sevoflurane anesthesia) is ~5 Hz. For the same molecule, the “alpha oscillation peak coherence” value in assay [4] (sevoflurane general anesthesia) is 0.73±0.1.

As to `COC(=O)C(c1ccccc1)C1CCCCN1` (centres unmarked) [methylphenidate], the “emergence from general anesthesia” value in assay [5] (isoflurane general anesthesia) is listed as “actively induces emergence from isoflurane general anesthesia”. Besides, the minute ventilation entry in assay [5] (plethysmography and blood gas experiments) is given as “increases minute ventilation”.

With `CNC1(c2ccccc2Cl)CCCCC1=O` (centres unmarked) [ketamine], in assay [6], the BIS values result was “high BIS values”.
